Data as given in US12649734B2, “Bioavailable protein disulfide isomerase inhibitors” (THE CLEVELAND CLINIC FOUNDATION, priority 2020, dated 2026).
Each block holds one compound with its values, some of them ahead of it.

Columns and labels:
[1] = tested on: BTZ-resistant MM1.S cells; assay: Cell viability assay, BTZ-resistant MM1.S; assay type: cell-based, human; settings: Homo sapiens, MM1.S; MM1S.luc BTZ; read-out: IC50 concentration
Description: Cells and reagents: MM1.S-luc-BTZ (BTZ®)-resistant cell line was made in our laboratory. Starting with 1 nM concentration, MM1.S-luc cells were treated with BTZ and exposed continuously for 5 days and removed for 2 days before re-exposure to the drug until the growth of the cells mimicked the parental cell line. Incremental increase of the drug was applied until the concentration of 8 nM was reached. […] BTZ was procured from Millennium Pharmaceuticals Inc. All cell lines that are used in this study and their detailed information are shown in table 1 below.
(§1) Cell viability assay: Cell viability was measured in 96 well culture plates (2×10^4 cells/well) using CellTiter-Glo® Luminescent Cell Viability Assay (Promega, Madison, WI, USA) according to the manufacturer's protocol.

[2] = tested on: MM1.S cells; assay: Cell viability assay (CellTiter-Glo), MM1.S; assay type: cell-based, human; settings: Homo sapiens; MM1.S.luc; read-out: IC50 concentration
Description: Cell vi-ability and LD50 for inhibitors were measured in 96 well culture plates (2×10^4 cells/well) after 72 h of treatment using CellTiter-Glo® Luminescent Cell Viability Assay (Promega, Madison, WI, USA). (A) Cell survival assay with MM1.S.luc and BTZ-resistant MM1.S.luc cells. […] (C) Comparison of PDIA1 protein levels in MM1.S.luc and MM1.S.luc BTZ-resistant cells. Band intensity was calculated with Image Lab Version 5.2.1. (D) Cell survival assay with 5TGM1.luc and (E) BTZ-resistant 5TGM1.luc cells. (F) MM1.S cell line was exposed to CCF642-34, and BTZ for 72 h for synergistic drug combination test according to Chou and Talalay method. If the […] remained less than 1, the two drugs were determined as synergistic. […] The number of colony-forming units were plotted for each treatment.
as §1

[3] = molecular target: PDIA1 (Homo sapiens, UniProt P07237); settings: cited from earlier work
Sequence of PDIA1 (P07237 18-508): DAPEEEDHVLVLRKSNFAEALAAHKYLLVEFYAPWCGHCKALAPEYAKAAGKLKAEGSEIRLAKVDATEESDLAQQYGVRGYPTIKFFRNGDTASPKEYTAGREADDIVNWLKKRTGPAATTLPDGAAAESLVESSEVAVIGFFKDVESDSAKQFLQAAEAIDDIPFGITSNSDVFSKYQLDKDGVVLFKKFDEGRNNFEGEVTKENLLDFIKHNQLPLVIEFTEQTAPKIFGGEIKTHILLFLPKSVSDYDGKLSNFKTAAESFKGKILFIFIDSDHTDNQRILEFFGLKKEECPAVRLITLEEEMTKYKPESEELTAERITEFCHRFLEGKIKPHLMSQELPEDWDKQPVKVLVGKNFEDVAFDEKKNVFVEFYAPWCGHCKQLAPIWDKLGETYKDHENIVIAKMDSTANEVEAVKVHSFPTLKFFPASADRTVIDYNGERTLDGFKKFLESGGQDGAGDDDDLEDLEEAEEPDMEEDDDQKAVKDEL

[4] = molecular target: PDI (Homo sapiens, UniProt P07237); settings: reported previously; cited from earlier work
Sequence of PDI (P07237 18-508): as above

[5] = tested on: MM1.S cells; assay: RNA-seq gene expression profiling; assay type: cell-based, human; settings: 3 μM, 6 h
Description: FIGS. 7A-7H provide graphs showing CCF642-34 is selective for PDIA1 inhibition-induced ER stress response pathway. MM1.S cells were treated with 3 μM of either CCF642 or CCF642-34 for 6 h, and gene expression analysis was performed by RNA sequencing. (A,B) Volcano plots showing CCF642-34 and CCF642 compared to DMSO control. The criteria for differential expression were at least a 2-fold change with p value less than 0.05. The analysis was performed in Originlab, Version 2019b (OriginLab Corporation, Northampton, MA, USA). […] The diagram was generated using a web-based bioinformatics server. (D,E) Hierarchical clusterings with heat map of MM1.S cells treated with vehicle CCF642-34 or CCF642 are shown for response to endoplasmic reticulum stress and unfolded protein response gene sets. (F-H) Heat maps of PERK and ATF6 target genes, Nrf2, and ER-associated degradation (ERAD) pathways are compared between control and inhibitor-treated MM1.S cells. Data analysis was performed using a web-based server and the Broad Institute Morpheus software.
RNA-seq and analysis: MM1.S cells were treated with 3 μM of either CCF642 or CCF642-34 for 6 h, and RNA was purified by using the NucleoSpin RNA kit (Takara Bio USA, Inc.; cat. #740955) according to the manufacturer's instruction. The RNA sequencings were completed as reported previously. Guan et al., Commun. Biol., 3, 1-13 (2020) The RNA-seq data were sub-mitted to the Gene Expression Omnibus (GEO) repository at the National Center for Biotechnology Information (NCBI) archives, with assigned GEO accession number GSE167097.

[6] = tested on: RPMI-8226 cells vs CD34+ HSPCs derived from healthy bone marrow; assay: In vitro colony-forming assay, myeloma cells versus normal bone marrow CD34+ cells; assay type: cell-based, human; settings: colonies scored on day 14
Description: In vitro colony-forming assays: Mononuclear cells derived from bone marrow or purified CD34+ cells from a healthy donor, cord blood, or MM cell RPMI-8226 were grown in semi-solid methylcellulose media (MethoCult™, H4435; STEMCELL Technologies) in the presence of indicated compounds and concentrations. A total of 10,000/mL normal bone marrow CD34+ cells and 1000/mL RPMI-8226 cells were plat-ed, and colonies were scored on day 14.

[7] = Solubility in aqueous buffer (turbidity assay); assay type: physicochemical
Text: To improve its solubility, potency, and selectivity, the inventors used the CCF642 binding space in the catalytic site for in silico modeling and mapped the binding site to the helix-turn-helix motif composed of the WCGHCK binding site in the aa′ and bb′ domains of the PDIA1 active site (FIG. 4A,B). […] The inventors chose to accomplish this by attaching a 3-carbon flexible linker with a terminal primary amino group to the corresponding phenol followed by coupling to desired L-amino acids (FIGS. 1, 2, 4A). The N-BOC penultimate intermediates were purified using flash silica gel chromatography and then deprotected using 4N HCl in dioxane to generate the corresponding hydrochloride (HCL) salts. The compounds for testing were fully characterized by ^1H, ^13C NMR and high-resolution mass spectroscopy.

[8] = tested on: MM1.S cells; assay: ER stress response and apoptosis markers by immunoblotting; assay type: cell-based, human; settings: 3 μM, 4 h
Description: FIGS. 6A-6C provide graphs and images showing PDIA1 inhibition by CCF642 analogues induce acute endoplasmic reticulum (ER) stress response and lead to apoptosis. Multiple myeloma cells (MM1.S) were treated with 3 μM of CCF642, -34, -37, -39, -34-A, and Tunicamycin (as a control). The status of ER sensors (XBP-1S, IRE1α oligomerization, and induction of C/EBP homology protein (CHOP)) along with apoptosis markers (cleaved caspase 3 and PARP1) were monitored. (A) MM1.S cells were treated for 4 h with CCF642 and its indicated analogues. (B) MM1.S cells were treated with CCF642-34 in a time course. (C) MM1.S, MM1.S.luc, and BTZ-resistant MM1.S.luc cells were stained with the H2DCFDA ROS detection and then treated with 2.5 μM CCF642-34 up to 4 h.
Immunoblotting: Immunoblotting was performed as described previously (Dallas et al., Blood, 93, 1697-1706 (1999)) using primary antibodies against PDIA1 (Cat #3501), XBP1-S (Cat #12782); IRE1α (Cat #3294), C/EBP homologous protein (CHOP) (Cat #5554), Caspase-3 (Cat #9665), PARP1 (Cat #9542), and GAPDH (Cat #3683) purchased from Cell Signaling Technology, Inc. (Danvers, MA, USA) and used at 1:1000 dilution, unless mentioned otherwise.

IC50 [1]: 8 nM
IC50 [2]: 2 nM
SMILES: CC(C)C[C@H](NC(=O)[C@H](Cc1ccccc1)NC(=O)c1cnccn1)B(O)O [Bortezomib, reference compound]

SMILES: COc1ccc(N2C(=O)/C(=C\c3ccc([N+](=O)[O-])s3)SC2=S)cc1 [CCF642, reference compound]
binding selectivity of CCF642, as reported previously [3]: off-target bindings in addition to its binding to PDIA1
IC50 [4]: sub-micromolar
number of downregulated genes [5]: 257 genes
number of upregulated genes [5]: 311 genes
number of genes with changed expression compared to vehicle control ([5]; 2-fold change, p less than 0.05): 568 genes
potency in restricting colony formation of RPMI-8226 compared to CD34+ HSPCs [6]: ~20 fold
solubility [7]: insolubility

SMILES: O=C(CCC1CNc2ccccc21)NCCCOc1ccc(N2C(=O)/C(=C/c3ccc([N+](=O)[O-])s3)SC2=S)cc1 (stereo not shown) [CCF642-34A]
ER stress response (induction of XBP-1S and CHOP) [8]: failed to induce acute ER stress response
